# Assay results taken from ChEMBL document CHEMBL1201862, “PubChem BioAssay data set” (2004).
# Active and inactive are the calls of the source.
# Columns and labels:
# [1] = biological target: DNA dC->dU-editing enzyme APOBEC-3G (Homo sapiens, UniProt Q9HC16); type: functional;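 further: Dose-response counterscreen measuring inhibition of APOBEC3G DNA deaminase activity, run while confirming APOBEC3A inhibitors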
# [2] = biological target: DNA dC->dU-editing enzyme APOBEC-3A (Homo sapiens, UniProt P31941); experiment: Dose Response confirmation of small molecule APOBEC3A DNA Deaminase Inhibitors via a fluorescence-based single-stranded DNA deaminase assay. [Related pubchem assays (depositor defined):AID493011, AID493024]; type: functional
# Sequence of DNA dC->dU-editing enzyme APOBEC-3A (P31941 whole entry, the tested form may be a part): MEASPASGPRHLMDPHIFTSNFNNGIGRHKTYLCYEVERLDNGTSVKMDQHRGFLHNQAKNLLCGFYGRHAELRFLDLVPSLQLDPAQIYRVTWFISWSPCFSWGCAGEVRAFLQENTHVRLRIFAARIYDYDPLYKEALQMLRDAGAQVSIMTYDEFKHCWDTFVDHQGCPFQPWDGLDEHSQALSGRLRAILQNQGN
# [3] = biological target: T1, Carboxy-terminal domain RNA polymerase II polypeptide A small phosphatase 1 (Homo sapiens, UniProt Q9GZU7); experiment: CTDSP1 inhibitors, concentration-response, biochemical, absorbance readout, ultra-high-throughput screen actives (AID 540297); type: functional
# T1 sequence (Q9GZU7 whole entry): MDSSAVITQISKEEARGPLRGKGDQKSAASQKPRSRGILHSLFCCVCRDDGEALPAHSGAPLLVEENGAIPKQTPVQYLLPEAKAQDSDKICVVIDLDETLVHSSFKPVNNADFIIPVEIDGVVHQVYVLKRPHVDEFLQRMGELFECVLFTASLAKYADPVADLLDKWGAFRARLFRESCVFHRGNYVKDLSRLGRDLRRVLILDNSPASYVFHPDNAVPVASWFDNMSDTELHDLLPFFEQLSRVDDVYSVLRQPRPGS
# [4] = Counterscreen for AddAB inhibitors: absorbance-based bacterial cell-based high throughput dose response assay for inhibitors of bacterial viability. [Related pubchem assays (depositor defined):AID435030, AID449728, AID449731, AID488942, AID488955, AID488956]; type: functional
# [5] = biological target: Heat shock protein HSP 90-alpha (Homo sapiens, UniProt P07900); type: functional, organism-based
# Exodeoxyribonuclease V = biological target: T2, Exodeoxyribonuclease V (Escherichia coli (strain K12), UniProt P04993+P07648+P08394); experiment: RecBCD inhibition via phage-restricted bacterial growth – absorbance, V66 E. coli, mutant T4 phage, counter-screen for AddAB inhibitor project, dose response (AID 492957); type: functional, cell-based, Escherichia coli str. K-12 substr. MG1655
# T2 sequence (P04993 whole entry): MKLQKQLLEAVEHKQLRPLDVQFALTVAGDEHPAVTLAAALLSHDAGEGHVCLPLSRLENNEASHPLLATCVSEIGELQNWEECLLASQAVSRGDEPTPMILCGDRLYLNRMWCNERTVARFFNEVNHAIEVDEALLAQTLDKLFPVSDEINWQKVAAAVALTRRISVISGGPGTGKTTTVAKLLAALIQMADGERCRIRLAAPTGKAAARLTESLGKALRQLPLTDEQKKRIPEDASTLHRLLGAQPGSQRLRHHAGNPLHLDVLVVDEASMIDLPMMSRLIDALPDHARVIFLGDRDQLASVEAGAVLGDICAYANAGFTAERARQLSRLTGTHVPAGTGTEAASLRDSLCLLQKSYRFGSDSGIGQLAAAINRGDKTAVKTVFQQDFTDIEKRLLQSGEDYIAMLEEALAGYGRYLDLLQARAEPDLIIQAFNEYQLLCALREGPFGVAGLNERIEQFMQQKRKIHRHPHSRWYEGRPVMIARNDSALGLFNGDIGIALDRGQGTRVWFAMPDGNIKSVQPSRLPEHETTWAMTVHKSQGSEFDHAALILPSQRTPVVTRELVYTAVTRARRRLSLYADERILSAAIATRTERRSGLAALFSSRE
# T2 sequence (P07648 whole entry): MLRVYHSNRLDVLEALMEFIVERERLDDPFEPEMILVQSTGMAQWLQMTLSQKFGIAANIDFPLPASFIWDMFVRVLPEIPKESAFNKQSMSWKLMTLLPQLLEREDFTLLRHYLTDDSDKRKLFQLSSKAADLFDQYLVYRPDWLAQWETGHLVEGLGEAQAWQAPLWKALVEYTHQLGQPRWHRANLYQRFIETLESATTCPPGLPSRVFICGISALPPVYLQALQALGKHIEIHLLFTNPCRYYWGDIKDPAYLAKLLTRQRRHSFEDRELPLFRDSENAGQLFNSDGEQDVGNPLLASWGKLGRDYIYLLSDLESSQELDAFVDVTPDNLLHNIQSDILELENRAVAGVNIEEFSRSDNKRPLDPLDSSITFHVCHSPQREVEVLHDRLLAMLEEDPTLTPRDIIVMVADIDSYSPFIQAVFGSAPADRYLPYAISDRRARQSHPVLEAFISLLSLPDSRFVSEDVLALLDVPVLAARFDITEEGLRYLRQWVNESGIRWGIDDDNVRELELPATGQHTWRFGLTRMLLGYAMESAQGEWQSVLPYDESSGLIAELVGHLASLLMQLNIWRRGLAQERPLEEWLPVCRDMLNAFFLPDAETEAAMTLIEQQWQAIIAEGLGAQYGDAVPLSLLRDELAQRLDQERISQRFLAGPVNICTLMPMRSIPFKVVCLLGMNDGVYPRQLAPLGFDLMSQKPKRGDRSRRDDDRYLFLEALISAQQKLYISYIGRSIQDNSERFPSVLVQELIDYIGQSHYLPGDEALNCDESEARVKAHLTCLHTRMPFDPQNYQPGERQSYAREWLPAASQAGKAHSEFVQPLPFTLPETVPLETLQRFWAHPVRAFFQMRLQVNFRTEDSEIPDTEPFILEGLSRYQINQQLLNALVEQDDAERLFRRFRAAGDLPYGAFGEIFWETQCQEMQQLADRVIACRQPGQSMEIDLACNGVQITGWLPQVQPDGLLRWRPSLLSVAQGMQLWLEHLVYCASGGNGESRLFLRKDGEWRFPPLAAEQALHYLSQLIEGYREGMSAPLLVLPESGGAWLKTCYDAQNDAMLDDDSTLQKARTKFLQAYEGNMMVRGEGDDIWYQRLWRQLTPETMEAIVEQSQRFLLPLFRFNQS
# T2 sequence (P08394 whole entry): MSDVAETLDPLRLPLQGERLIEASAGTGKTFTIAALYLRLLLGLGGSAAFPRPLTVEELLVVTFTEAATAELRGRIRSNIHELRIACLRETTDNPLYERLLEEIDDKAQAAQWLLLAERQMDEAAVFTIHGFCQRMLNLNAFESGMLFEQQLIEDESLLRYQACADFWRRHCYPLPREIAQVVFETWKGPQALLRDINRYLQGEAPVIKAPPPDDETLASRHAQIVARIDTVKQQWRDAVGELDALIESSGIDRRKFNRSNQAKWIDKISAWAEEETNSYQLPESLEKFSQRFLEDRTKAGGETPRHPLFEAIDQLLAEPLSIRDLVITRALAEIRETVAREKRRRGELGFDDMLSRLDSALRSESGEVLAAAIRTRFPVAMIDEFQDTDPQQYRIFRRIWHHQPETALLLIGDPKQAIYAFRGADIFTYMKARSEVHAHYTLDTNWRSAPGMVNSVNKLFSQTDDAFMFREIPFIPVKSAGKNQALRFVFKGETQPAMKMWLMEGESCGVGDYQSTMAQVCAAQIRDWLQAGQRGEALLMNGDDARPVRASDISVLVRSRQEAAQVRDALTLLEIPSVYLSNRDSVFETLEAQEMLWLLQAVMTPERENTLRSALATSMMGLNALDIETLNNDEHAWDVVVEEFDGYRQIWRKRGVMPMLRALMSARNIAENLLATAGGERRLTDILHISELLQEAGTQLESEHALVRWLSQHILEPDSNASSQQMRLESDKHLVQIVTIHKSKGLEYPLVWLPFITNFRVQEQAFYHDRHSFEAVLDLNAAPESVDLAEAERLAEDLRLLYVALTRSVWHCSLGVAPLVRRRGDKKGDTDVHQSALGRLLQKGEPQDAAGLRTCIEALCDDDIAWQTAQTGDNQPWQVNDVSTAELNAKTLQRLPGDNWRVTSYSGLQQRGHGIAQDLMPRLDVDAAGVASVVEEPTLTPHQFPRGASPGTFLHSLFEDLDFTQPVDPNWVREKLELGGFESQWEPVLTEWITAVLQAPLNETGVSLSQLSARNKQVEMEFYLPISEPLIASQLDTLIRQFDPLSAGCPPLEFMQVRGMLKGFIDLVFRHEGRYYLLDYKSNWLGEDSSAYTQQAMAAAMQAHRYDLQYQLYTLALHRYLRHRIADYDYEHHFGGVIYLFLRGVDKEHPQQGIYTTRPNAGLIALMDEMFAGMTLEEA
# [6] = intracellular Trypanosoma cruzi inhibitors in host cells – cell-based, plate reader, cherry-pick samples, set 3, dose response (AID 651818); type: functional;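 further: compounds incubated with infected cells for about four days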
# [7] = microbe, parasite or virus in culture; type: functional; settings: Mycobacterium tuberculosis
# [8] = biological target: T3, Short transient receptor potential channel 4 (Mus musculus, UniProt Q9QUQ5); experiment: calcium entry via TRPC4 opening agents – cell-based, HEK293 TRPC4/mu-opioid, Fluo-4 calcium, dose response (AID 434937); type: functional
# T3 sequence (Q9QUQ5 whole entry): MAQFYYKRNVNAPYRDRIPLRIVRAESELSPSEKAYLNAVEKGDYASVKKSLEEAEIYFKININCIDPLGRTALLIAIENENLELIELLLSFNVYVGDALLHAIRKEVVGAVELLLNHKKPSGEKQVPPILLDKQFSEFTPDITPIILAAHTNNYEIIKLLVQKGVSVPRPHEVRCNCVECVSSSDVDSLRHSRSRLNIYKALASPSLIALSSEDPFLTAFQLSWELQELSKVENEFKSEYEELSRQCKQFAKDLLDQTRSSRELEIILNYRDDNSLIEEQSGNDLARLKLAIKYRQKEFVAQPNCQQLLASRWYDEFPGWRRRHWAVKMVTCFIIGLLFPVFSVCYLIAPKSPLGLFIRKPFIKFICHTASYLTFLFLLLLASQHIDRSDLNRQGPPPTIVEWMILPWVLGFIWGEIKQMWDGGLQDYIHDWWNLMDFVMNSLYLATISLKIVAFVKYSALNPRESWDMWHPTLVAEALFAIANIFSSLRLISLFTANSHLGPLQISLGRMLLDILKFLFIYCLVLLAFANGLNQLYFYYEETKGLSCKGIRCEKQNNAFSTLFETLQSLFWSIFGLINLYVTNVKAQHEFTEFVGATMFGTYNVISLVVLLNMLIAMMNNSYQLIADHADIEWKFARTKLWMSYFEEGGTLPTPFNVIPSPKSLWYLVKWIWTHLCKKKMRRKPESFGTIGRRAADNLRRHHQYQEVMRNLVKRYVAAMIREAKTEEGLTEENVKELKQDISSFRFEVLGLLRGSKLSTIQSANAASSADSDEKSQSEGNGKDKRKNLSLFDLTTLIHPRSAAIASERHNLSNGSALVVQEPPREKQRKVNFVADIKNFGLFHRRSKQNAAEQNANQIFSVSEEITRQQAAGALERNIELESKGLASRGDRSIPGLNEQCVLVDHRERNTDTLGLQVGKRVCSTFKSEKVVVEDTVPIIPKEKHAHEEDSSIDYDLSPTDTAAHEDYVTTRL
# [9] = biological target: T3, Short transient receptor potential channel 4; experiment: block of DAMGO-driven TRPC4 calcium entry – cell-based, HEK293 TRPC4/mu-opioid, Fluo-4 calcium, dose response (AID 434942); type: functional;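 further: potency of inhibitors blocking the TRPC4 calcium response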
# Sequence of DNA dC->dU-editing enzyme APOBEC-3G (Q9HC16 whole entry): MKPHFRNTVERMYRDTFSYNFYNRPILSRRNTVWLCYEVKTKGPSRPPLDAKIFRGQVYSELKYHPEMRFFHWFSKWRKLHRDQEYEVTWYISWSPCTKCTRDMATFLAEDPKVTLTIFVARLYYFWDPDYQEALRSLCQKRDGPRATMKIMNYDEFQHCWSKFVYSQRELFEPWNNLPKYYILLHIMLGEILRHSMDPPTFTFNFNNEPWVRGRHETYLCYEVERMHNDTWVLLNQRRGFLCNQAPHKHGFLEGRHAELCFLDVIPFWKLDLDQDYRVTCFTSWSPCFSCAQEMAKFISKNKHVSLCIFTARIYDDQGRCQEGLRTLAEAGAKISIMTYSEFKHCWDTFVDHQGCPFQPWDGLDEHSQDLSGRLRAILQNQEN
structure (smiles),measurement,setting,value
CCCCn1nc(NC(=O)COC)c2cc3ccc(C)cc3nc21,IC50,[1],5 µM (active)
same,IC50,[2],3.49 µM (active)
Cc1ccc(C)c(OCCC(=O)OCC(=O)N2c3ccccc3NC(=O)C2(C)C)c1,IC50,[1],10.4 µM (active)
same,IC50,[2],11 µM (active)
O=C(COc1cccc([N+](=O)[O-])c1)N/N=C/c1ccco1,IC50,[3],13.9 µM (active)
O=C(O)c1cn(-c2ccc(N3CCCC3)c(F)c2)c2c(F)c(F)c(F)cc2c1=O,IC50,[4],64.9 µM (inactive)
same,AC50,[5],4.37 µM (active)
same,IC50,Exodeoxyribonuclease V,> 119 µM (inactive)
COc1ccc(NC(=O)CSc2nnc(-c3ccc(F)cc3)o2)cn1,IC50,[4],> 119 µM (inactive)
same,IC50,Exodeoxyribonuclease V,> 119 µM (inactive)
Cc1cc(NS(=O)(=O)c2ccc(N)cc2)no1 [SULFAMETHOXAZOLE],IC50,[4],29.2 µM (inactive)
same,IC50,Exodeoxyribonuclease V,> 119 µM (inactive)
C[C@@H]1CCCCO[C@@H](CN(C)Cc2ccc(Cl)c(Cl)c2)[C@@H](C)CN([C@H](C)CO)C(=O)c2cc(NC(=O)Nc3ccc4c(c3)OCO4)ccc2O1,AC50,[6],3.68 µM (active)
C[C@@H]1CCCCO[C@H](CN(C)Cc2ccc(Cl)c(Cl)c2)[C@@H](C)CN([C@H](C)CO)C(=O)c2cc(NS(=O)(=O)c3ccc(F)cc3)ccc2O1,AC50,[6],4.79 µM (active)
C[C@@H]1CN([C@H](C)CO)C(=O)Cc2cc(NC(=O)Nc3cccc4ccccc34)ccc2O[C@@H]1CN(C)Cc1ccc(Oc2ccccc2)cc1,AC50,[6],2.15 µM (active)
COC(=O)Cn1c(=O)c2c(n(Cc3ccccc3)c1=O)=N/C(=C/c1ccc(Br)cc1)C=2O,IC50,[3],5.15 µM (active)
O=C(Nc1nc2c(s1)CCCC2)C1CCCN1C(=O)c1cccs1 (stereo unspecified),IC50,[1],15.8 µM (active)
same,IC50,[2],10 µM (active)
CCC(C)NC(=O)c1cn(CC)c2cc(N3CCN(C(=O)c4ccco4)CC3)c(F)cc2c1=O (stereo unspecified),IC50,[4],22 µM (inactive)
same,IC50,Exodeoxyribonuclease V,89.9 µM (inactive)
same,CC50,[7],> 40 µM (active)
COc1cc(OC)c(CN2CCC(Cc3ccccc3)CC2)cc1Br,EC50,[8],2.66 µM (active)
CN(C)C(CNC(=O)C1CCN(S(=O)(=O)c2cccc(C(F)(F)F)c2)CC1)c1ccccc1 (stereo unspecified),EC50,[9],421 nM (active)
same,EC50,[8],0.376 µM (active)
C[C@H]1CN([C@@H](C)CO)C(=O)c2cccc(NC(=O)c3nc4ccccc4s3)c2O[C@H]1CN(C)Cc1ccc(C(=O)Nc2ccccc2N)cc1,AC50,[6],2.97 µM (active)
Cc1cc(Cl)ccc1N=C(S)NCc1ccccc1Cl,IC50,[4],> 119 µM (inactive)
same,IC50,Exodeoxyribonuclease V,> 119 µM (inactive)
CCOc1ccccc1OCC(=O)Nc1cc(S(=O)(=O)N2CCCCC2)ccc1N1CCN(CC)CC1,IC50,[1],6.44 µM (active)
same,EC50,[8],4.22 µM (active)
same,IC50,[2],5.85 µM (active)
Cc1ccc(C)c(NC(=O)CSc2sc3c(O)cc(=O)[nH]c3c2C#N)c1,IC50,[3],6.09 µM (active)
